Patent US20250230193A1, “CYCLIC COMPOUND HAVING SELECTIVE KRAS INHIBITORY EFFECT ON HRAS AND NRAS” (CHUGAI SEIYAKU KABUSHIKI KAISHA, priority 2022, published 2025)
Where a SMILES comes first, the peptide text is derived from it. Bridges are numbered along the chain shown (N, C = ends). [ ]: non-standard residue; d: D form. The star is where a group is joined. hPhe(3-Cl-4-CF3) = N[C@@H](CCc1ccc(C(F)(F)F)c(Cl)c1)C(=O)O; NPrPhe(4-CF3) = CCCN[C@@H](Cc1ccc(C(F)(F)F)cc1)C(=O)O; NEtPhe(4-CF3) = CCN[C@@H](Cc1ccc(C(F)(F)F)cc1)C(=O)O; hPhe(3,4-Cl2) = N[C@@H](CCc1ccc(Cl)c(Cl)c1)C(=O)O; NMeGly(cPent) = CN[C@H](C(=O)O)C1CCCC1; Hyp = O=C(O)[C@@H]1C[C@@H](O)CN1; NMeD = CN[C@@H](CC(=O)O)C(=O)O; NMeL = CN[C@@H](CC(C)C)C(=O)O; Ac6c = NC1(C(=O)O)CCCCC1; Morpholide = C1CN(*)CCO1; Ac5c = NC1(C(=O)O)CCCC1; Ac3c = NC1(C(=O)O)CC1; Aib = CC(C)(N)C(=O)O; Sar = CNCC(=O)O

Experiments:
[1] = molecular target: GDP-bound HRAS wild-type protein (Homo sapiens, UniProt P01112); assay: Binding to HRAS by surface plasmon resonance (SPR), Single Cycle Kinetics; conditions: KD ratio HRAS/KRAS, SPR
Chain of GDP-bound HRAS wild-type protein (P01112 whole entry): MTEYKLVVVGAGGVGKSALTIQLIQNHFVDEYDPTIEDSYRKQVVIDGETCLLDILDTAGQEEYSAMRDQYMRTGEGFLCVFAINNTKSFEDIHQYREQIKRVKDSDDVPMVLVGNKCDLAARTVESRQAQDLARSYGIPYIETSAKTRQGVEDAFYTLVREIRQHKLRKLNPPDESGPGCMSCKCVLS

[2] = molecular target: GDP-bound NRAS wild-type protein (Homo sapiens, UniProt P01111); assay: Binding to NRAS by surface plasmon resonance (SPR), Single Cycle Kinetics; conditions: KD ratio NRAS/KRAS, SPR
Chain of GDP-bound NRAS wild-type protein (P01111 whole entry): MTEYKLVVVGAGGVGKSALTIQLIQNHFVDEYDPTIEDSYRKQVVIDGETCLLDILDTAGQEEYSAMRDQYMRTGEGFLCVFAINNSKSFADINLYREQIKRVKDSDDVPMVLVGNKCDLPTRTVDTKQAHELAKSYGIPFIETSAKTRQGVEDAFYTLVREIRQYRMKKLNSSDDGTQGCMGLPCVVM

SMILES	HRAS/KRAS (ratio of KD for GDP-bound HRAS wild-type to KD for KRAS) [1]	NRAS/KRAS (ratio of KD for GDP-bound NRAS wild-type to KD for KRAS) [2]
CCCN1C(=O)CN(C)C(=O)CN(C)C(=O)[C@H]([C@@H](C)CC)NC(=O)[C@H](CC(C)C)N(C)C(=O)C[C@@H](C(=O)N2CCOCC2)N(C)C(=O)[C@H](C2CCCC2)N(C)C(=O)C2(CCCCC2)NC(=O)[C@@H]2CCCN2C(=O)[C@H](CCc2ccc(C(F)(F)F)c(Cl)c2)NC(=O)CN(C)C(=O)[C@@H]1Cc1ccc(C(F)(F)F)cc1 [PP0231] ([NMeL]I[Sar][Sar][NPrPhe(4-CF3)][Sar][hPhe(3-Cl-4-CF3)]P[Ac6c][NMeGly(cPent)][NMeD]-Morpholide; lactam N-11)	C (A compound having a KD ratio of 0.1 or more and less than 3 is denoted as C)	B (a compound having 3 or more and less than 10 is denoted as B)
CCCN1C(=O)CN(C)C(=O)CN(C)C(=O)[C@H]([C@@H](C)CC)NC(=O)[C@H](CC(C)C)N(C)C(=O)C[C@@H](C(=O)N2CCOCC2)N(C)C(=O)[C@H](C2CCCC2)N(C)C(=O)C2(CCCC2)NC(=O)[C@@H]2CCCN2C(=O)[C@H](CCc2ccc(Cl)c(Cl)c2)NC(=O)CN(C)C(=O)[C@@H]1Cc1ccc(C(F)(F)F)cc1 [PP0232] ([NMeL]I[Sar][Sar][NPrPhe(4-CF3)][Sar][hPhe(3,4-Cl2)]P[Ac5c][NMeGly(cPent)][NMeD]-Morpholide; lactam N-11)	B (a compound having 3 or more and less than 10 is denoted as B)	B (a compound having 3 or more and less than 10 is denoted as B)
CCCN1C(=O)CN(C)C(=O)CN(C)C(=O)[C@H]([C@@H](C)CC)NC(=O)[C@H](CC(C)C)N(C)C(=O)C[C@@H](C(=O)N2CCOCC2)N(C)C(=O)[C@H](C2CCCC2)N(C)C(=O)C2(CCCC2)NC(=O)[C@@H]2C[C@@H](OCC)CN2C(=O)[C@H](CCc2ccc(C(F)(F)F)c(Cl)c2)NC(=O)CN(C)C(=O)[C@@H]1Cc1ccc(C(F)(F)F)cc1 [PP0233] ([NMeL]I[Sar][Sar][NPrPhe(4-CF3)][Sar][hPhe(3-Cl-4-CF3)][Hyp](Et)[Ac5c][NMeGly(cPent)][NMeD]-Morpholide; lactam N-11)	C (A compound having a KD ratio of 0.1 or more and less than 3 is denoted as C)	B (a compound having 3 or more and less than 10 is denoted as B)
CC[C@H](C)[C@@H]1NC(=O)[C@H](CC(C)C)N(C)C(=O)C[C@@H](C(=O)N2CCOCC2)N(C)C(=O)[C@H](C2CCCC2)N(C)C(=O)C2(CC2)NC(=O)[C@@H]2CCCN2C(=O)[C@H](CCc2ccc(C(F)(F)F)c(Cl)c2)NC(=O)CN(C)C(=O)[C@H](Cc2ccc(C(F)(F)F)cc2)N(CC)C(=O)CN(C)C(=O)CN(C)C1=O [PP0234] ([NMeL]I[Sar][Sar][NEtPhe(4-CF3)][Sar][hPhe(3-Cl-4-CF3)]P[Ac3c][NMeGly(cPent)][NMeD]-Morpholide; lactam N-11)	C (A compound having a KD ratio of 0.1 or more and less than 3 is denoted as C)	B (a compound having 3 or more and less than 10 is denoted as B)
CC[C@H](C)[C@@H]1NC(=O)[C@H](CC(C)C)N(C)C(=O)C[C@@H](C(=O)N2CCOCC2)N(C)C(=O)[C@H](C2CCCC2)N(C)C(=O)C(C)(C)NC(=O)[C@@H]2CCCN2C(=O)[C@H](CCc2ccc(C(F)(F)F)c(Cl)c2)NC(=O)CN(C)C(=O)[C@H](Cc2ccc(C(F)(F)F)cc2)N(CC)C(=O)CN(C)C(=O)CN(C)C1=O [PP0235] ([NMeL]I[Sar][Sar][NEtPhe(4-CF3)][Sar][hPhe(3-Cl-4-CF3)]P[Aib][NMeGly(cPent)][NMeD]-Morpholide; lactam N-11)	C (A compound having a KD ratio of 0.1 or more and less than 3 is denoted as C)	B (a compound having 3 or more and less than 10 is denoted as B)
CC[C@H](C)[C@@H]1NC(=O)[C@H](CC(C)C)N(C)C(=O)C[C@@H](C(=O)N2CCOCC2)N(C)C(=O)[C@H](C2CCCC2)N(C)C(=O)C2(CCCCC2)NC(=O)[C@@H]2CCCN2C(=O)[C@H](CCc2ccc(C(F)(F)F)c(Cl)c2)NC(=O)CN(C)C(=O)[C@H](Cc2ccc(C(F)(F)F)cc2)N(CC)C(=O)CN(C)C(=O)CN(C)C1=O [PP0236] ([NMeL]I[Sar][Sar][NEtPhe(4-CF3)][Sar][hPhe(3-Cl-4-CF3)]P[Ac6c][NMeGly(cPent)][NMeD]-Morpholide; lactam N-11)	C (A compound having a KD ratio of 0.1 or more and less than 3 is denoted as C)	B (a compound having 3 or more and less than 10 is denoted as B)
CC[C@H](C)[C@@H]1NC(=O)[C@H](CC(C)C)N(C)C(=O)C[C@@H](C(=O)N2CCOCC2)N(C)C(=O)[C@H](C2CCCC2)N(C)C(=O)C2(CCCC2)NC(=O)[C@@H]2CCCN2C(=O)[C@H](CCc2ccc(Cl)c(Cl)c2)NC(=O)CN(C)C(=O)[C@H](Cc2ccc(C(F)(F)F)cc2)N(CC)C(=O)CN(C)C(=O)CN(C)C1=O [PP0237] ([NMeL]I[Sar][Sar][NEtPhe(4-CF3)][Sar][hPhe(3,4-Cl2)]P[Ac5c][NMeGly(cPent)][NMeD]-Morpholide; lactam N-11)	C (A compound having a KD ratio of 0.1 or more and less than 3 is denoted as C)	B (a compound having 3 or more and less than 10 is denoted as B)
